The text below walks through data of patent US20260347373A1, “HETEROCYCLIC COMPOUNDS, COMPOSITIONS THEREOF, AND METHODS OF TREATMENT THEREWITH” (BeOne Medicines I GmbH, priority 2023, published 2026).

Each structure is given as a SMILES string. Counter-ions that a name gives are not always drawn. Like-named read-outs stand apart in the source and are kept apart here.

One experiment deals with WT KRAS (Homo sapiens, UniProt P01116). The experiment in a line: KRAS WT Probe Displacement Assay (TR-FRET, GDP-loaded). Format: binding. An excerpt:
(§1) The synthetic routes of probe 1 and 2, which have been disclosed in PCT/CN2022/070676, are hereby incorporated herein.

Another experiment deals with KRAS G12D (Homo sapiens, UniProt P01116, G12D). Nature of the experiment: KRAS G12D Probe Displacement Assay (TR-FRET, GDP-loaded). Format: binding.
Excerpt: as §1

Where [1] appears, read: KRAS WT, read-out: KRAS^WT Probe Displacement Assay IC50.
The mark [2] stands for this setting: KRAS G12D, read-out: KRAS^G12D Probe Displacement Assay IC50.
The mark [3] stands for this setting: KRAS^WT Probe Displacement Assay IC50, KRAS WT.
[4] abbreviates: KRAS^G12D Probe Displacement Assay IC50, KRAS G12D.

KRAS G12D, sequence (P01116 1-188 isoform P01116-2 G12D): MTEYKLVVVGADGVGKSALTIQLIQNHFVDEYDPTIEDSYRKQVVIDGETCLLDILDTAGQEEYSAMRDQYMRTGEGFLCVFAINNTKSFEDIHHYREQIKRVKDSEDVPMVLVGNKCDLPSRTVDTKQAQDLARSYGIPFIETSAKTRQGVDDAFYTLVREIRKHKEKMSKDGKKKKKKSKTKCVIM
WT KRAS, sequence (P01116 1-188 isoform P01116-2): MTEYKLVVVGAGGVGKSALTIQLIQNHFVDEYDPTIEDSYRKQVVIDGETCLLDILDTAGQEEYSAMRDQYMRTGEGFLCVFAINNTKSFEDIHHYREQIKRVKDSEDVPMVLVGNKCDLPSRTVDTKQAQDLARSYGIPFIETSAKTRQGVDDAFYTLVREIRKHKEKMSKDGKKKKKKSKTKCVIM

`Cc1cc(N)cc(-c2nc3c4c(nc(OCC5(CN6CCn7cncc7C6)CC5)nc4c2F)N2C[C@H]4CC[C@H](N4)[C@H]2CCO3)c1C(F)(F)F` [Example 108, 3-((6aR,7S,10R)-13-((1-((5,6-dihydroimidazo [1,5-a]pyrazin-7(8H)-yl)methyl)cyclopropyl)methoxy)-1-fluoro-5,6,6a,7,8,9, 10,11-octahydro-4-oxa-3,11a,12,14,15-pentaaza-7,10-methanocyclohepta [4,5]cycloocta [1,2,3-de]naphthalen-2-yl)-5-methyl-4-(trifluoromethyl)aniline]: the results for the IC50 at WT KRAS (setting [1]) and at KRAS G12D (setting [2]) were 3 to 1000 nM and 0.3 to 3 nM, respectively.

As to `Cc1cc(N)cc(-c2nc3c4c(nc(OCC5(CN6CCOC7(CCC7)C6)CC5)nc4c2F)N2C[C@H]4CC[C@H](N4)[C@H]2CCO3)c1C(F)(F)F` [Example 121, 3-((6aR,7S,10R)-13-((1-((5-oxa-8-azaspiro[3.5]nonan-8-yl)methyl)cyclopropyl)methoxy)-1-fluoro-5,6,6a,7,8,9,10,11-octahydro-4-oxa-3,11a,12,14,15-pentaaza[7,10]methanocyclohepta [4,5]cycloocta[1,2,3-de]naphthalen-2-yl)-5-methyl-4-(trifluoromethyl)aniline], the values for the IC50 at WT KRAS (setting [1]) and on KRAS G12D (setting [2]) were 3 to 1000 nM and less than 0.3 nM, respectively.

On to `Cc1cc(N)cc(-c2nc3c4c(nc(OCC5(CN6C7COCC6C7)CC5)nc4c2F)N2C[C@H]4CC[C@H](N4)[C@H]2CCO3)c1C(F)(F)F` [Example 104, 3-((6aR,7S,10R)-13-((1-((3-oxa-6-azabicyclo[3.1.1]heptan-6-yl)methyl)cyclopropyl)methoxy)-1-fluoro-5,6,6a,7,8,9,10,11-octahydro-4-oxa-3,11a,12,14,15-pentaaza-7,10-methanocyclohepta [4,5]cycloocta [1,2,3-de]naphthalen-2-yl)-5-methyl-4-(trifluoromethyl) aniline formate], for which the figures for the IC50 on WT KRAS (setting [3]) and at KRAS G12D (setting [4]) were 3 to 1000 nM and less than 0.3 nM, respectively.

In the case of `Cc1cc(N)cc(-c2nc3c4c(nc(OCC5(CN6CC7CC(C6)O7)CC5)nc4c2F)N2C[C@H]4CC[C@H](N4)[C@H]2CCO3)c1C(F)(F)F` [Example 105, 3-((6aR,7S,10R)-13-((1-((6-oxa-3-azabicyclo [3.1.1]heptan-3-yl)methyl)cyclopropyl)methoxy)-1-fluoro-5,6,6a,7,8,9,10,11-octahydro-4-oxa-3,11a,12,14,15-pentaaza-7,10-methanocyclohepta [4,5]cycloocta [1,2,3-de]naphthalen-2-yl)-5-methyl-4-(trifluoromethyl)aniline], the IC50 was 0.3 to 3 nM at WT KRAS (setting [1]) and less than 0.3 nM at KRAS G12D (setting [2]).

Turning to `[2H]C([2H])([2H])N1CCC(C(F)F)C(C)(C([2H])([2H])Oc2nc3c4c(nc(-c5cc(N)cc(C)c5C(F)(F)F)c(F)c4n2)OCC[C@@H]2[C@@H]4CC[C@H](CN32)N4)C1` (single isomer, unassigned) [Example 241], the figures for the IC50 at WT KRAS (setting [1]) and at KRAS G12D (setting [2]) were 0.3 to 3 nM and less than 0.3 nM, respectively.

On to `Cc1cc(N)cc(-c2nc3c4c(nc(OCC5(CN6CCC(C#N)C6)CC5)nc4c2F)N2C[C@H]4CC[C@H](N4)[C@H]2CCO3)c1C(F)(F)F` (stereo partly drawn) [Example 166, 1-((1-((((6aR,7S,10R)-2-(5-amino-3-methyl-2-(trifluoromethyl)phenyl)-1-fluoro-5,6,6a,7,8,9,10,11-octahydro-4-oxa-3,11a,12,14,15-pentaaza-7,10-methanocyclohepta[4,5]cycloocta[1,2,3-de]naphthalen-13-yl)oxy)methyl)cyclopropyl)methyl)pyrrolidine-3-carbonitrile], for which the results for the IC50 on WT KRAS (setting [1]) and at KRAS G12D (setting [2]) were 3 to 1000 nM and less than 0.3 nM, respectively.

For the compound `Cc1cc(N)cc(-c2nc3c4c(nc(OCC5(CN6CCC[C@@H]6C)CC5)nc4c2F)N2C[C@H]4CC[C@H](N4)[C@H]2CCO3)c1C(F)(F)F` [Example 123, 3-((6aR,7S,10R)-1-fluoro-13-((1-(((S)-2-methylpyrrolidin-1-yl)methyl)cyclopropyl)methoxy)-5,6,6a, 7,8,9,10,11-octahydro-4-oxa-3,11a,12,14,15-pentaaza-7,10-methanocyclohepta [4,5]cycloocta [1,2,3-de]naphthalen-2-yl)-5-methyl-4-(trifluoromethyl)aniline], the IC50 at WT KRAS (setting [1]) was 3 to 1000 nM; at KRAS G12D (setting [2]), less than 0.3 nM.

For the compound `[2H]C([2H])([2H])c1cc(N)cc(-c2nc3c4c(nc(OCC56C[C@@H](F)CN5C[C@H](F)C6)nc4c2F)N2C[C@H]4CC[C@H](N4)[C@H]2CCO3)c1C(F)(F)F` [Example 73, 3-((6aR,7S,10R)-13-(((2R,6R)-2,6-difluorotetrahydro-1H-pyrrolizin-7a(5H)-yl)methoxy)-1-fluoro-5,6,6a,7,8,9,10,11-octahydro-4-oxa-3,11a,12,14,15-pentaaza-7,10-methanocyclohepta[4,5]cycloocta [1,2,3-de]naphthalen-2-yl)-5-(methyl-d3)-4-(trifluoromethyl)aniline], the IC50 on WT KRAS (setting [1]) is 3 to 1000 nM; at KRAS G12D (setting [2]), less than 0.3 nM.

For the compound `Cc1cc(N)cc(-c2nc3c4c(nc(OCC5(CN6CCOCC6)CC5)nc4c2F)N2C[C@H]4CC[C@H](N4)[C@H]2CCO3)c1C(F)(F)F` [Example 67, 3-((6aR,7S,10R)-1-fluoro-13-((1-(morpholinomethyl)cyclopropyl)methoxy)-5,6,6a,7,8,9,10,11-octahydro-4-oxa-3,11a,12,14,15-pentaaza-7,10-methanocyclohepta[4,5]cycloocta [1,2,3-de]naphthalen-2-yl)-5-methyl-4-(trifluoromethyl)aniline], the IC50 on WT KRAS (setting [1]) was 3 to 1000 nM; at KRAS G12D (setting [2]), less than 0.3 nM.

In the case of `CCN1CCN(CC2(COc3nc4c5c(nc(-c6cc(N)cc(C)c6C(F)(F)F)c(F)c5n3)OCC[C@@H]3[C@@H]5CC[C@H](CN43)N5)CC2)CC1` [Example 152, 3-((6aR,7S,10R)-13-((1-((4-ethylpiperazin-1-yl)methyl)cyclopropyl)methoxy)-1-fluoro-5,6,6a,7,8,9,10,11-octahydro-4-oxa-3,11a,12,14,15-pentaaza-7,10-methano-cyclohepta[4,5]cycloocta [1,2,3-de]naphthalen-2-yl)-5-methyl-4-(trifluoromethyl) aniline], the IC50 on WT KRAS (setting [3]) was 3 to 1000 nM; on KRAS G12D (setting [4]) it was less than 0.3 nM.

On to `Cc1cc(N)cc(-c2nc3c4c(nc(OCC5(CN6CCC(C)(O)C6)CC5)nc4c2F)N2C[C@H]4CC[C@H](N4)[C@H]2CCO3)c1C(F)(F)F` (stereo partly drawn) [Example 93, 1-((1-((((6aR,7S, 10R)-2-(5-amino-3-methyl-2-(trifluoromethyl)phenyl)-1-fluoro-5,6,6a,7,8,9,10,11-octahydro-4-oxa-3,11a,12,14,15-pentaaza-7,10-methanocyclohepta [4,5]cycloocta[1,2,3-de]naphthalen-13-yl)oxy)methyl)cyclopropyl)methyl)-3-methylpyrrolidin-3-ol], for which the results for the IC50 at WT KRAS (setting [1]) and on KRAS G12D (setting [2]) were 3 to 1000 nM and less than 0.3 nM, respectively.

For the compound `Cc1cc(N)cc(-c2nc3c4c(nc(OCC5(C)CC(F)CN(C6CCOCC6)C5)nc4c2F)N2C[C@H]4CC[C@H](N4)[C@H]2CCO3)c1C(F)(F)F` (single isomer, unassigned) [Example 234], the IC50 at WT KRAS (setting [1]) was 3 to 1000 nM; at KRAS G12D (setting [2]), 0.3 to 3 nM.

Consider `[2H]C([2H])([2H])N1CC/C(=C\F)C(C)(C([2H])([2H])Oc2nc3c4c(nc(-c5cc(N)cc(C)c5C(F)(F)F)c(F)c4n2)OCC[C@@H]2[C@@H]4CC[C@H](CN32)N4)C1` (single isomer, unassigned) [Example 242], for which the half-maximal inhibitory concentration (IC50) on WT KRAS (setting [1]) is 3 to 1000 nM; at KRAS G12D (setting [2]) it was less than 0.3 nM.

Consider `CO[C@@H]1C[C@@H](C(C)Oc2nc3c4c(nc(-c5cc(N)cc(C)c5C(F)(F)F)c(F)c4n2)OCC[C@@H]2[C@@H]4CC[C@H](CN32)N4)N(C)C1` (single isomer, unassigned) [Example 144], for which the values for the IC50 at WT KRAS (setting [1]) and at KRAS G12D (setting [2]) were 3 to 1000 nM and less than 0.3 nM, respectively.

As to `Cc1cc(N)cc(-c2nc3c4c(nc(OCC5(C)CN(C)CCN5C)nc4c2F)N2C[C@H]4CC[C@H](N4)[C@H]2CCO3)c1C(F)(F)F` (single isomer, unassigned) [Example 4], the figures for the 50% inhibitory concentration (IC50) on WT KRAS (setting [1]) and on KRAS G12D (setting [2]) were 3 to 1000 nM and less than 0.3 nM, respectively.

For `Cc1cc(N)cc(-c2nc3c4c(nc(OCC5(CN6CC(F)(F)C6)CC5)nc4c2F)N2C[C@H]4CC[C@H](N4)[C@H]2CCO3)c1C(F)(F)F` [Example 82, 3-((6aR,7S,10R)-13-((1-((3,3-difluoroazetidin-1-yl)methyl)cyclopropyl)methoxy)-1-fluoro-5,6,6a,7,8,9,10,11-octahydro-4-oxa-3,11a,12,14,15-pentaaza-7,10-methanocyclohepta [4,5]cycloocta [1,2,3-de]naphthalen-2-yl)-5-methyl-4-(trifluoromethyl)aniline], the IC50 on WT KRAS (setting [1]) was in the range of 3 to 1000 nM; on KRAS G12D (setting [2]), 0.3 to 3 nM.

Take `COC1CCN(CC2(COc3nc4c5c(nc(-c6cc(N)cc(C)c6C(F)(F)F)c(F)c5n3)OCC[C@@H]3[C@@H]5CC[C@H](CN43)N5)CC2)CC1` [Example 110, 3-((6aR,7S,10R)-1-fluoro-13-((1-((4-methoxypiperidin-1-yl)methyl)cyclopropyl)methoxy)-5,6,6a,7,8,9,10,11-octahydro-4-oxa-3,11a,12,14,15-pentaaza-7,10-methanocyclohepta[4,5]cycloocta[1,2,3-de]naphthalen-2-yl)-5-methyl-4-(trifluoromethyl)aniline]: the IC50 is 3 to 1000 nM on WT KRAS (setting [1]) and less than 0.3 nM at KRAS G12D (setting [2]).

For `C=C1CN2C[C@H](F)C[C@@]2(COc2nc3c4c(nc(-c5cc(N)cc(C)c5C(F)(F)F)c(F)c4n2)OCC[C@@H]2[C@@H]4CC[C@H](CN32)N4)C1` [Example 208, 3-((6aR,7S,10R)-1-fluoro-13-(((2R,7aR)-2-fluoro-6-methylenetetrahydro-1H-pyrrolizin-7a(5H)-yl)methoxy)-5,6,6a,7,8,9,10,11-octahydro-4-oxa-3,11a,12,14,15-pentaaza-7,10-methanocyclohepta[4,5]cycloocta[1,2,3-de]naphthalen-2-yl)-5-methyl-4-(trifluoromethyl)aniline], the IC50 at WT KRAS (setting [1]) was 0.3 to 3 nM; on KRAS G12D (setting [2]), less than 0.3 nM.
